Results as given in patent US12310975B2, “Modulators of BCL6 proteolysis and associated methods of use” (Arvinas Operations, Inc., priority 2019, dated 2025).

Target: BCL6 (Homo sapiens (Human), UniProt P41182)
Test: Immunofluorescence high content imaging of BCL6 degradation in T47D cells
Assay type: cell-based
Details: T47D cells
Summary of the method: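 Seed T47D in RPMI1640-10% FBS to reach ~70-90% confluence at endpoint; add degrader next day (11-point 3-fold series, top 0.1 or 1 μM final) for 3 days. Then fix, permeabilize, stain BCL6 with nuclear Hoechst, and image.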

Row | SMILES | Dmax [%] | IC50 [nM]
1 | CC[C@@H]1CN(c2ncc(Cl)c(Nc3ccc4c(c3)cc(OCC(=O)NC)c(=O)n4C(C)C)n2)C[C@@H](COc2ccc3c(c2)C(=O)N(C2CCC(=O)NC2=O)C3=O)O1 (stereo partly drawn) [compound 389, 2-{[6-({5-chloro-2-[(2S,6R)-2-({[2-(2,6-dioxopiperidin-3-yl)-1,3-dioxo-2,3-dihydro-1H-isoindol-5-yl]oxy}methyl)-6-ethylmorpholin-4-yl]pyrimidin-4-yl}amino)-2-oxo-1-(propan-2-yl)-1,2-dihydroquinolin-3-yl]oxy}-N-methylacetamide] | < 50 | 10 to 50
2 | CNC(=O)COc1cc2cc(Nc3nc(N4CCC5(CC4)CC(OC4CCN(c6ccc7c(c6)C(=O)N(C6CCC(=O)NC6=O)C7=O)CC4)C5)ncc3Cl)ccc2n(C(C)C)c1=O (stereo not shown) [compound 392, 2-{[6-({5-chloro-2-[2-({1-[2-(2,6-dioxopiperidin-3-yl)-1,3-dioxo-2,3-dihydro-1H-isoindol-5-yl]piperidin-4-yl}oxy)-7-azaspiro[3.5]nonan-7-yl]pyrimidin-4-yl}amino)-2-oxo-1-(propan-2-yl)-1,2-dihydroquinolin-3-yl]oxy}-N-methylacetamide] |  | ≥ 100
3 | CNC(=O)CCN1Cc2cc(Nc3nc(N4CCN(CC5CCN(c6ccc7c(c6)C(=O)N(C6CCC(=O)NC6=O)C7=O)CC5)CC4)ncc3Cl)ccc2CC1=O (stereo not shown) [compound 395, 3-[7-({5-chloro-2-[4-({1-[2-(2,6-dioxopiperidin-3-yl)-1,3-dioxo-2,3-dihydro-1H-isoindol-5-yl]piperidin-4-yl}methyl)piperazin-1-yl]pyrimidin-4-yl}amino)-3-oxo-1,2,3,4-tetrahydroisoquinolin-2-yl]-N-methylpropanamide] |  | 1000
4 | CNC(=O)COc1cc2cc(Nc3nc(N4CCN(C(C)(C)C5CCN(c6cccc(C(=O)NC7CCC(=O)NC7=O)[n+]6[O-])CC5)CC4)ncc3Cl)ccc2n(C)c1=O (stereo not shown) [compound 396, 2-[4-(2-{4-[5-chloro-4-({1-methyl-3-[(methylcarbamoyl)methoxy]-2-oxo-1,2-dihydroquinolin-6-yl}amino)pyrimidin-2-yl]piperazin-1-yl}propan-2-yl)piperidin-1-yl]-6-[(2,6-dioxopiperidin-3-yl)carbamoyl]pyridin-1-ium-1-olate] | < 50 | 10 to 50
5 | CNC(=O)COc1cc2cc(Nc3nc(N4CCN(CC5CCN(c6cccc(C(=O)NC7CCC(=O)NC7=O)[n+]6[O-])CC5)CC4)ncc3Cl)ccc2n(C(C)C)c1=O (stereo not shown) [compound 397, 2-[4-({4-[5-chloro-4-({3-[(methylcarbamoyl)methoxy]-2-oxo-1-(propan-2-yl)-1,2-dihydroquinolin-6-yl}amino)pyrimidin-2-yl]piperazin-1-yl}methyl)piperidin-1-yl]-6-[(2,6-dioxopiperidin-3-yl)carbamoyl]pyridin-1-ium-1-olate] | < 50 | 10 to 50
6 | CNC(=O)COc1cc2cc(Nc3nc(N4CCN(CC5CCN(C(=O)c6ccc(OC)c(N7CCC(=O)NC7=O)c6)CC5)CC4)ncc3Cl)ccc2n(C(C)C)c1=O [compound 401, 2-{[6-({5-chloro-2-[4-({1-[3-(2,4-dioxo-1,3-diazinan-1-yl)-4-methoxybenzoyl]piperidin-4-yl}methyl)piperazin-1-yl]pyrimidin-4-yl}amino)-2-oxo-1-(propan-2-yl)-1,2-dihydroquinolin-3-yl]oxy}-N-methylacetamide] | < 50 | < 10
7 | CNC(=O)COc1cc2cc(Nc3nc(N4CCN(CC5CCN(C(=O)c6ccc(N7CCC(=O)NC7=O)cc6)CC5)CC4)ncc3Cl)ccc2n(C(C)C)c1=O [compound 402, 2-{[6-({5-chloro-2-[4-({1-[4-(2,4-dioxo-1,3-diazinan-1-yl)benzoyl]piperidin-4-yl}methyl)piperazin-1-yl]pyrimidin-4-yl}amino)-2-oxo-1-(propan-2-yl)-1,2-dihydroquinolin-3-yl]oxy}-N-methylacetamide] |  | ≥ 100
8 | CNC(=O)COc1cc2cc(Nc3nc(N4CCC(O[C@H]5C[C@H](N6CCC(c7ccc8c(c7)C(=O)N(C7CCC(=O)NC7=O)C8=O)CC6)C5)CC4)ncc3Cl)ccc2n(C(C)C)c1=O (stereo partly shown) [compound 403, 2-({6-[(5-chloro-2-{4-[(1r,3r)-3-{4-[2-(2,6-dioxopiperidin-3-yl)-1,3-dioxo-2,3-dihydro-1H-isoindol-5-yl]piperidin-1-yl}cyclobutoxy]piperidin-1-yl}pyrimidin-4-yl)amino]-2-oxo-1-(propan-2-yl)-1,2-dihydroquinolin-3-yl}oxy)-N-methylacetamide] | 50 to 70 | < 10

Further lines, results first:

Row | Dmax [%] | IC50 [nM] | SMILES
9 | 50 to 70 | < 10 | CNC(=O)COc1cc2cc(Nc3nc(N4CCC5(CC4)CN(CC4CCN(c6cccc7c6C(=O)N(C6CCC(=O)NC6=O)C7=O)CC4)C5)ncc3Cl)ccc2n(C(C)C)c1=O (stereo not shown) [compound 385, 2-{[6-({5-chloro-2-[2-({1-[2-(2,6-dioxopiperidin-3-yl)-1,3-dioxo-2,3-dihydro-1H-isoindol-4-yl]piperidin-4-yl}methyl)-2,7-diazaspiro[3.5]nonan-7-yl]pyrimidin-4-yl}amino)-2-oxo-1-(propan-2-yl)-1,2-dihydroquinolin-3-yl]oxy}-N-methylacetamide]
10 | 50 to 70 | < 10 | CNC(=O)COc1cc2cc(Nc3nc(N4CCC(CN5CCC(c6cccc7c6C(=O)N(C6CCC(=O)NC6=O)C7=O)CC5)CC4)ncc3Cl)ccc2n(C(C)C)c1=O (stereo not shown) [compound 386, 2-{[6-({5-chloro-2-[4-({4-[2-(2,6-dioxopiperidin-3-yl)-1,3-dioxo-2,3-dihydro-1H-isoindol-4-yl]piperidin-1-yl}methyl)piperidin-1-yl]pyrimidin-4-yl}amino)-2-oxo-1-(propan-2-yl)-1,2-dihydroquinolin-3-yl]oxy}-N-methylacetamide]
11 | 50 to 70 | < 10 | CNC(=O)COc1cc2cc(Nc3nc(N4C[C@@H](C)N(CC5CCN(c6cccc7c6C(=O)N(C6CCC(=O)NC6=O)C7=O)CC5)[C@@H](C)C4)ncc3Cl)ccc2n(C(C)C)c1=O (stereo partly drawn) [compound 387, 2-{[6-({5-chloro-2-[(3R,5S)-4-({1-[2-(2,6-dioxopiperidin-3-yl)-1,3-dioxo-2,3-dihydro-1H-isoindol-4-yl]piperidin-4-yl}methyl)-3,5-dimethylpiperazin-1-yl]pyrimidin-4-yl}amino)-2-oxo-1-(propan-2-yl)-1,2-dihydroquinolin-3-yl]oxy}-N-methylacetamide]
12 | 50 to 70 | < 10 | CNC(=O)COc1cc2cc(Nc3nc(N4CCN(CC5CCN(c6ccc7c(c6)CN(C6CCC(=O)NC6=O)C7=O)CC5)CC4)ncc3Cl)ccc2n(C(C)C)c1=O (stereo not shown) [compound 388, 2-{[6-({5-chloro-2-[4-({1-[2-(2,6-dioxopiperidin-3-yl)-1-oxo-2,3-dihydro-1H-isoindol-5-yl]piperidin-4-yl}methyl)piperazin-1-yl]pyrimidin-4-yl}amino)-2-oxo-1-(propan-2-yl)-1,2-dihydroquinolin-3-yl]oxy}-N-methylacetamide]
13 | 50 to 70 | < 10 | CNC(=O)COc1cc2cc(Nc3nc(N4CCC(OC5CC6(CCN(c7ccc8c(c7)C(=O)N(C7CCC(=O)NC7=O)C8=O)CC6)C5)CC4)ncc3Cl)ccc2n(C(C)C)c1=O (stereo not shown) [compound 390, 2-{[6-({5-chloro-2-[4-({7-[2-(2,6-dioxopiperidin-3-yl)-1,3-dioxo-2,3-dihydro-1H-isoindol-5-yl]-7-azaspiro[3.5]nonan-2-yl}oxy)piperidin-1-yl]pyrimidin-4-yl}amino)-2-oxo-1-(propan-2-yl)-1,2-dihydroquinolin-3-yl]oxy}-N-methylacetamide]
14 | ≥ 70 | < 10 | CNC(=O)COc1cc2cc(Nc3nc(N4CCC(OC5CC6(CCN(c7cccc8c7C(=O)N(C7CCC(=O)NC7=O)C8=O)CC6)C5)CC4)ncc3Cl)ccc2n(C(C)C)c1=O (stereo not shown) [compound 391, 2-{[6-({5-chloro-2-[4-({7-[2-(2,6-dioxopiperidin-3-yl)-1,3-dioxo-2,3-dihydro-1H-isoindol-4-yl]-7-azaspiro[3.5]nonan-2-yl}oxy)piperidin-1-yl]pyrimidin-4-yl}amino)-2-oxo-1-(propan-2-yl)-1,2-dihydroquinolin-3-yl]oxy}-N-methylacetamide]
15 | ≥ 70 | < 10 | CNC(=O)COc1cc2cc(Nc3nc(N4CCC5(CC4)CC(OC4CCN(c6cccc7c6C(=O)N(C6CCC(=O)NC6=O)C7=O)CC4)C5)ncc3Cl)ccc2n(C(C)C)c1=O (stereo not shown) [compound 393, 2-{[6-({5-chloro-2-[2-({1-[2-(2,6-dioxopiperidin-3-yl)-1,3-dioxo-2,3-dihydro-1H-isoindol-4-yl]piperidin-4-yl}oxy)-7-azaspiro[3.5]nonan-7-yl]pyrimidin-4-yl}amino)-2-oxo-1-(propan-2-yl)-1,2-dihydroquinolin-3-yl]oxy}-N-methylacetamide]
16 | 50 to 70 | < 10 | CC[C@H]1CN(c2ncc(Cl)c(Nc3ccc4c(c3)cc(OCC(=O)NC)c(=O)n4C(C)C)n2)C[C@@H](COc2ccc3c(c2)C(=O)N(C2CCC(=O)NC2=O)C3=O)O1 (stereo partly drawn) [compound 394, 2-{[6-({5-chloro-2-[(2S,6S)-2-({[2-(2,6-dioxopiperidin-3-yl)-1,3-dioxo-2,3-dihydro-1H-isoindol-5-yl]oxy}methyl)-6-ethylmorpholin-4-yl]pyrimidin-4-yl}amino)-2-oxo-1-(propan-2-yl)-1,2-dihydroquinolin-3-yl]oxy}-N-methylacetamide]
17 | < 50 | < 10 | CNC(=O)COc1cc2cc(Nc3nc(N4CCN(CC5CCCN5c5cccc6c5C(=O)N(C5CCC(=O)NC5=O)C6=O)CC4)ncc3Cl)ccc2n(C(C)C)c1=O (stereo not shown) [compound 398, 2-{[6-({5-chloro-2-[4-({1-[2-(2,6-dioxopiperidin-3-yl)-1,3-dioxo-2,3-dihydro-1H-isoindol-4-yl]pyrrolidin-2-yl}methyl)piperazin-1-yl]pyrimidin-4-yl}amino)-2-oxo-1-(propan-2-yl)-1,2-dihydroquinolin-3-yl]oxy}-N-methylacetamide]
